Reference: patent publication US8030354B2, “Substituted biphenyl GPR40 modulators” (Amgen Inc., priority 2007, dated 2011)
pEC50: −log10 of the molar value.

How the values were obtained:
GPR40 [1] = molecular target: T1, GPR40 (Homo sapiens, UniProt O14842); test: Cell-based aequorin assay (CHO cells stably expressing GPR40 and aequorin); set-up: expressed in transfected cells; host or cells: CHO cells stably transfected with GPR40 and aequorin; conditions: activation of human GPR40, CHO cells, 0.01% HSA
T1 sequence (O14842 whole entry): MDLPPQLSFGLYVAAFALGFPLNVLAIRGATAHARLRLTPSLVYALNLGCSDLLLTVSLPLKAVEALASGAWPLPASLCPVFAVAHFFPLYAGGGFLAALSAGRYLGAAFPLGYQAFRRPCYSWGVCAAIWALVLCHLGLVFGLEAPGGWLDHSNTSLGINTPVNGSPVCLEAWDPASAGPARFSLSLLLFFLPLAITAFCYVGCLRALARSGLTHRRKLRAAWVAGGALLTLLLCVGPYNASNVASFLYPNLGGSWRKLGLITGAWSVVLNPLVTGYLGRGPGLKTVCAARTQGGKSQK
Summary of the method: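 CHO cells stably co-expressing GPR40 and aequorin, loaded with coelenterazine (1 ug/mL, 2 h, room temperature) in H/HBSS with 20 mM Hepes and 0.01% fatty acid-free HSA. Serially diluted compounds added; luminescence recorded over 20 s. EC50 from dose-response of maximum relative light units.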

GPR40 [2] = molecular target: T1, GPR40; test: Inositol phosphate accumulation assay (A9_GPR40 cells); type: cell-based; set-up: expressed in transfected cells; host or cells: CHO cells stably transfected with GPR40 and aequorin; conditions: inositol phosphate assay, A9_GPR40 cells, 1 hour; read-out: IP3 EC50
Procedure: Briefly, the Aequorin assays were performed on doubly stable CHO cells expressing GPR40 and Aequorin DNA. […] The luminescence was recorded over a period of 20 seconds with a Microlumat luminometer (Berthold). […] The inositol phosphate assay was performed on an A9 cell line stably transfected with GPR40 (A9_GPR40). The cells were incubated with different concentrations of compounds and [^3H] inositol accumulation was measured after 1 hour.
An A9 cell line stably transfected with GPR40 (A9_GPR40) was used in IP accumulation assays. A9_GPR40 cells were plated in 96-well plates containing 20,000 cells/well in DMEM containing 10% FBS. After the cells attached to the well surface, the media was replaced with inositol free DMEM containing 10% dialyzed FBS and 1 μCi, mL ^3H-inositol and incubated for 16 hours. Compounds were diluted in HBSS/10 mM LiCl containing a desired amount of HSA and added directly to cells. Following 1 hour incubation at 37° C., the media was replaced with 100 μL of 20 mM formic acid to quench the reaction. 50 μL of the extract was then added to 100 μL of SPA beads, incubated overnight, and measured on a TopCount the following day.

Structure (SMILES) | pEC50 (GPR40 [1]) | pEC50 (GPR40 [2])
CCCCOc1cc(COc2cccc([C@H](C)CC(=O)O)c2)ccc1-c1cc(OC)ccc1F (single isomer, unassigned) [Example 5, (3R)-3-(3-(((2Butyloxy)-2′-fluoro-5′-(methyloxy)-1,1′-biphenyl-4-yl)methyl)oxy)phenyl)butanoic acid or (3S)-3-(3-(((2-(butyloxy)-2′-fluoro-5′-(methyloxy)-1,1′-biphenyl-4-yl)methyl)oxy)phenyl)butanoic acid] | 6.00 to 7.00 | 6.00 to 7.00
COc1ccc(F)c(-c2ccc(COc3cccc([C@@H](CC(=O)O)C(F)(F)F)c3)cc2C(C)(C)C)c1 (single isomer, unassigned) [Example 6, (3R)-3-(3-(((2-(1,1-Dimethylethyl)-2′-fluoro-5′-(methyloxy)-1,1′-biphenyl-4-yl)methyl)oxy)phenyl)-4,4,4-trifluorobutanoic acid or (3S)-3-(3-(((2-(1,1-dimethylethyl)-2′-fluoro-5′-(methyloxy)-1,1′-biphenyl-4-yl)methyl)oxy)phenyl)-4,4,4-trifluorobutanoic acid] | 5.00 to 6.00 | < 6.00
CCCCOc1cc(COc2cccc([C@@H](CC(=O)O)C(F)(F)F)c2)ccc1-c1cc(OC)ccc1F (single isomer, unassigned) [Example 7, (3R)-3-(3-(((2-(Butyloxy)-2′-fluoro-5′-(methyloxy)-1,1′-biphenyl-4-yl)methyl)oxy)phenyl)-4,4,4-trifluorobutanoic acid or (3S)-3-(3-(((2-(butyloxy)-2′-fluoro-5′-(methyloxy)-1,1′-biphenyl-4-yl)methyl)oxy)phenyl)-4,4,4-trifluorobutanoic acid] | 5.00 to 6.00 | 5.00 to 6.00
COc1ccc(F)c(-c2ccc(COc3cccc([C@@H](CC(=O)O)C4CC4)c3)cc2C(C)(C)C)c1 (single isomer, unassigned) [Example 8, (3S)-3-Cyclopropyl-3-(3-(((2-(1,1-dimethylethyl)-2′-fluoro-5′-(methyloxy)-1,1′-biphenyl-4-yl)methyl)oxy)phenyl)propanoic acid or (3R)-3-cyclopropyl-3-(3-(((2-(1,1-dimethylethyl)-2′-fluoro-5′-(methyloxy)-1,1′-biphenyl-4-yl)methyl)oxy)phenyl)propanoic acid] | 6.00 to 7.00 | 6.00 to 7.00
COc1cccc(-c2ccc(COc3cccc([C@@H](CC(=O)O)C4CC4)c3)cc2C(C)(C)C)c1 (single isomer, unassigned) [Example 12, (3S)-3-Cyclopropyl-3-(3-(((2-(1,1-dimethylethyl)-3′-(methyloxy)-1,1′-biphenyl-4-yl)methyl)oxy)phenyl)propanoic acid or (3R)-3-cyclopropyl-3-(3-(((2-(1,1-dimethylethyl)-3′-(methyloxy)-1,1′-biphenyl-4-yl)methyl)oxy)phenyl)propanoic acid] | 6.00 to 7.00 | 6.00 to 7.00
CC[C@H](CC(=O)O)c1cccc(OCc2ccc(-c3cc(OC)ccc3F)c(C(C)(C)C)c2)c1 (single isomer, unassigned) [Example 17, (3R)-3-(3-(((2-(1,1-Dimethylethyl)-2′-fluoro-5′-(methyloxy)-1,1′-biphenyl-4-yl)methyl)oxy)phenyl)pentanoic acid or (3S)-3-(3-(((2-(1,1-dimethylethyl)-2′-fluoro-5′-(methyloxy)-1,1′-biphenyl-4-yl)methyl)oxy)phenyl)pentanoic acid] | 6.00 to 7.00 | 6.00 to 7.00
CCCCOc1cc(COc2cccc([C@H](CC)CC(=O)O)c2)ccc1-c1cc(OC)ccc1F (single isomer, unassigned) [Example 18, (3R)-3-(3-(((2-(Butyloxy)-2′-fluoro-5′-(methyloxy)-1,1′-biphenyl-4-yl)methyl)oxy)phenyl)pentanoic acid or (3S)-3-(3-(((2-(butyloxy)-2′-fluoro-5′-(methyloxy)-1,1′-biphenyl-4-yl)methyl)oxy)phenyl)pentanoic acid] | 6.00 to 7.00 | 6.00 to 7.00
CCCCOc1cc(COc2cccc([C@H](C)CC(=O)O)c2)ccc1-c1cccc(OC)c1 (single isomer, unassigned) [Example 20, (3R)-3-(3-(((2-(Butyloxy)-3′-(methyloxy)-1,1′-biphenyl-4-yl)methyl)oxy)phenyl)butanoic acid or (3S)-3-(3-(((2-(butyloxy)-3′-(methyloxy)-1,1′-biphenyl-4-yl)methyl)oxy)phenyl)butanoic acid] | 6.00 to 7.00 | 6.00 to 7.00
CCC[C@H](CC(=O)O)c1cccc(OCc2ccc(-c3cccc(OC)c3)c(C(C)(C)C)c2)c1 (single isomer, unassigned) [Example 33, (3R)-3-(3-(((2-(1,1-Dimethylethyl)-3′-(methyloxy)-1,1′-biphenyl-4-yl)methyl)oxy)phenyl)hexanoic acid or (3S)-3-(3-(((2-(1,1-dimethylethyl)-3′-(methyloxy)-1,1′-biphenyl-4-yl)methyl)oxy)phenyl)hexanoic acid] | 6.00 to 7.00 | 6.00 to 7.00

Second part, the molecule after the results:

pEC50 (GPR40 [1]) | pEC50 (GPR40 [2]) | Structure (SMILES)
6.00 to 7.00 | 6.00 to 7.00 | C[C@H](CC(=O)O)c1cccc(OCc2ccc(-c3cc(O)ccc3F)c(C(C)(C)C)c2)c1 (single isomer, unassigned) [Example 35, (3R)-3-(3-(((2-(1,1-Dimethylethyl)-2′-fluoro-5′-hydroxy-1,1′-biphenyl-4-yl)methyl)oxy)phenyl)butanoic acid or (3S)-3-(3-(((2-(1,1-dimethylethyl)-2′-fluoro-5′-hydroxy-1,1′-biphenyl-4-yl)methyl)oxy)phenyl)butanoic acid]
6.00 to 7.00 | 5.00 to 6.00 | COc1ccc(F)c(-c2ccc(COc3cccc(C(C)CC(=O)O)c3)cc2C(C)(C)C)c1 (single isomer, unassigned) [Example 42, (3R)-3-(3-(((2-(1,1-Dimethylethyl)-2′-fluoro-5′-(methyloxy)-1,1′-biphenyl-4-yl)methyl)oxy)phenyl)butanoic acid or (3S)-3-(3-(((2-(1,1-dimethylethyl)-2′-fluoro-5′-(methyloxy)-1,1′-biphenyl-4-yl)methyl)oxy)phenyl)butanoic acid]
6.00 to 7.00 | 6.00 to 7.00 | CCC[C@H](CC(=O)O)c1cccc(OCc2ccc(-c3cc(OC)ccc3F)c(C(C)(C)C)c2)c1 (single isomer, unassigned) [Example 43, (3R)-3-(3-(((2-(1,1-Dimethylethyl)-2′-fluoro-5′-(methyloxy)-1,1′-biphenyl-4-yl)methyl)oxy)phenyl)hexanoic acid or (3S)-3-(3-(((2-(1,1-dimethylethyl)-2′-fluoro-5′-(methyloxy)-1,1′-biphenyl-4-yl)methyl)oxy)phenyl)hexanoic acid]
6.00 to 7.00 | 5.00 to 6.00 | COc1ccc(F)c(-c2ccc(COc3cccc([C@H](C)CC(=O)O)c3)cc2OC(F)(F)F)c1 (single isomer, unassigned) [Example 46, (3R)-3-(3-(((2′-Fluoro-5′-(methyloxy)-2-((trifluoromethyl)oxy)-1,1′-biphenyl-4-yl)methyl)oxy)phenyl)butanoic acid or (3S)-3-(3-(((2′-fluoro-5′-(methyloxy)-2-((trifluoromethyl)oxy)-1,1′-biphenyl-4-yl)methyl)oxy)phenyl)butanoic acid]
6.00 to 7.00 | 6.00 to 7.00 | COc1cccc(-c2ccc(COc3cccc([C@H](C)CC(=O)O)c3)cc2C(C)(C)C)c1 (single isomer, unassigned) [Example 47, (3R)-3-(3-(((2-(1,1-Dimethylethyl)-3′-(methyloxy)-1,1′-biphenyl-4-yl)methyl)oxy)phenyl)butanoic acid or (3S)-3-(3-(((2-(1,1-dimethylethyl)-3′-(methyloxy)-1,1′-biphenyl-4-yl)methyl)oxy)phenyl)butanoic acid]
5.00 to 6.00 | 5.00 to 6.00 | C=C(C)[C@H](CC(=O)O)c1cccc(OCc2ccc(-c3cc(OC)ccc3F)c(OCCCC)c2)c1 (single isomer, unassigned) [Example 50, (3S)-3-(3-(((2-(Butyloxy)-2′-fluoro-5′-(methyloxy)-1,1′-biphenyl-4-yl)methyl)oxy)phenyl)-4-methyl-4-pentenoic acid or (3R)-3-(3-(((2-(butyloxy)-2′-fluoro-5′-(methyloxy)-1,1′-biphenyl-4-yl)methyl)oxy)phenyl)-4-methyl-4-pentenoic acid]
6.00 to 7.00 | 6.00 to 7.00 | C=CC[C@H](CC(=O)O)c1cccc(OCc2ccc(-c3cc(OC)ccc3F)c(C(C)(C)C)c2)c1 (single isomer, unassigned) [Example 51, (3R)-3-(3-(((2-(1,1-Dimethylethyl)-2′-fluoro-5′-(methyloxy)-1,1′-biphenyl-4-yl)methyl)oxy)phenyl)-5-hexenoic acid or (3S)-3-(3-(((2-(1,1-dimethylethyl)-2′-fluoro-5′-(methyloxy)-1,1′-biphenyl-4-yl)methyl)oxy)phenyl)-5-hexenoic acid]
